SMILES strings stand for the structures.

Common to all, as to format: cell-based
Experiment [1] has as its system Chikungunya virus (CHIKV). The experiment can be described thus: microbe, parasite or virus in culture. The settings on record: Chikungunya virus, Vero, 48 h, read-out: Percent viral inhibition CHKV.
Experiment [2] concerns dengue virus (DENV). Kind of experiment: microbe, parasite or virus in culture. The settings on record: Dengue virus, Vero, 120 h, read-out: Percent viral inhibition DENY.
The subject of experiment [3] is Marburg virus (MARV). Kind of experiment: organism not typed. To be noted: Vero, 72 h, read-out: Percent viral inhibition MARV.

Turning to `CN1C[C@@H]2C[C@H]1CN2c1ccc(Oc2cc(CN3CCC(CC(=O)O)CC3)cc(-c3cc(Cl)cc(Cl)c3)n2)cn1` [Example 203, 2-(1-((2-(3,5-dichlorophenyl)-6-((6-((1S,4S)-5-methyl-2,5-diazabicyclo[2.2.1]heptan-2-yl)pyridin-3-yl)oxy)pyridin-4-yl)methyl)piperidin-4-yl)acetic acid], the inhibition at 1 µM came out at 23.6% in experiment [1], 7.17% in experiment [2] and 55.2% in experiment [3].
Taken in the same sequence, the figures for `CC(CCN1CCN(c2ncc(Oc3cc(CN4CCC(CC(=O)O)CC4)cc(-c4cc(Cl)cc(Cl)c4)n3)cn2)CC1)S(C)(=O)=O` (stereo not drawn) [Example 205, 2-(1-((2-(3,5-dichlorophenyl)-6-((2-(4-(3-(methylsulfonyl)butyl)piperazin-1-yl)pyrimidin-5-yl)oxy)pyridin-4-yl)methyl)piperidin-4-yl)acetic acid] were 23.7%, 57.6% and 77.6%.
Regarding `O=C(O)CC1CCN(Cc2cc(Oc3cnc(N4CCNCC4)nc3)nc(-c3cc(Cl)cc(Cl)c3)c2)CC1` [Example 206, 2-(1-((2-(3,5-dichlorophenyl)-6-((2-(piperazin-1-yl)pyrimidin-5-yl)oxy)pyridin-4-yl)methyl)piperidin-4-yl)acetic acid], the inhibition at 1 µM in experiment [1] was found to be 34.4%; in experiment [2], 29.3%; in experiment [3] it was 50.8%.
With `CN1CCN(c2ncc(Oc3cc(CN4CCC(CC(=O)O)CC4)cc(-c4cc(Cl)cc(Cl)c4)n3)cn2)CC1` [Example 207, 2-(1-((2-(3,5-dichlorophenyl)-6-((2-(4-methylpiperazin-1-yl)pyrimidin-5-yl)oxy)pyridin-4-yl)methyl)piperidin-4-yl)acetic acid], the values for the inhibition at 1 µM in experiment [1], in experiment [2] and in experiment [3] were 26.3%, 47.9% and 42.2%, respectively.
With `CNC(=O)OCC1CCN(Cc2cc(Oc3cnc(N4CCN(C(C)CCC(=O)O)CC4)nc3)nc(-c3cc(Cl)cc(Cl)c3)c2)CC1` (stereo not drawn) [Example 208, 4-(4-(5-((6-(3,5-dichlorophenyl)-4-((4-(((methylcarbamoyl)oxy)methyl)piperidin-1-yl)methyl)pyridin-2-yl)oxy)pyrimidin-2-yl)piperazin-1-yl)pentanoic acid], the inhibition at 1 µM in experiment [1] came out at 46.3%; in experiment [2] it was 68.6%; in experiment [3], 55.2%.
Take `CNC(=O)OCC1CCN(Cc2cc(Oc3cnc(N4CCN(CCCS(C)(=O)=O)CC4)nc3)nc(-c3cc(Cl)cc(Cl)c3)c2)CC1` [Example 210, (1-((2-(3,5-dichlorophenyl)-6-((2-(4-(3-(methylsulfonyl)propyl)piperazin-1-yl)pyrimidin-5-yl)oxy)pyridin-4-yl)methyl)piperidin-4-yl)methylmethylcarbamate]: the inhibition at 1 µM is 3.75% in experiment [1], 21% in experiment [2] and 32.6% in experiment [3].
Regarding `CNC(=O)OCC1CCN(Cc2cc(Oc3cnc(N4CCN(C5CC(C(=O)O)C5)CC4)nc3)nc(-c3cc(Cl)cc(Cl)c3)c2)CC1` (stereo not drawn) [Example 211, 3-(4-(5-((6-(3,5-dichlorophenyl)-4-((4-(((methylcarbamoyl)oxy)methyl)piperidin-1-yl)methyl)pyridin-2-yl)oxy)pyrimidin-2-yl)piperazin-1-yl)cyclobutanecarboxylic acid], the inhibition at 1 µM in experiment [1] came out at 44.7%; in experiment [2], 13.3%; in experiment [3] it was 62.5%.
On to `CC(CC1CCN(Cc2cc(Oc3ccc(N4CCN(C)CC4)nc3)nc(-c3cc(Cl)cc(Cl)c3)c2)CC1)C(=O)O` (stereo not drawn) [Example 213, 3-(1-((2-(3,5-dichlorophenyl)-6-((6-(4-methylpiperazin-1-yl)pyridin-3-yl)oxy)pyridin-4-yl)methyl)piperidin-4-yl)-2-methylpropanoic acid], for which the inhibition at 1 µM is 26.5% in experiment [1], 28% in experiment [2] and 49.3% in experiment [3].
In the case of `CC(=O)NCC1CCN(Cc2cc(Oc3cnc(N4CCN(C(C)CCC(=O)O)CC4)nc3)nc(-c3cc(Cl)cc(Cl)c3)c2)CC1` (stereo not drawn) [Example 215, 4-(4-(5-((4-((4-(acetamidomethyl)piperidin-1-yl)methyl)-6-(3,5-dichlorophenyl)pyridin-2-yl)oxy)pyrimidin-2-yl)piperazin-1-yl)pentanoic acid], the inhibition at 1 µM in experiment [1] stood at 32.5%; in experiment [2], 24.4%; in experiment [3] it was 56.7%.
As to `CC(=O)NCC1CCN(Cc2cc(Oc3cnc(N4CCN(C5CC(C(=O)O)C5)CC4)nc3)nc(-c3cc(Cl)cc(Cl)c3)c2)CC1` (stereo not drawn) [Example 216], the inhibition at 1 µM in experiment [1] worked out at 21.4%; in experiment [2] it was 8.34%; in experiment [3] it was 38.5%.
Regarding `CNC(=O)NCC1CCN(Cc2cc(Oc3cnc(N4CCN(C5CC(C(=O)O)C5)CC4)nc3)nc(-c3cc(Cl)cc(Cl)c3)c2)CC1` (stereo not drawn) [Example 221, 3-(4-(5-((6-(3,5-dichlorophenyl)-4-((4-((3-methylureido)methyl)piperidin-1-yl)methyl)pyridin-2-yl)oxy)pyrimidin-2-yl)piperazin-1-yl) cyclobutanecarboxylic acid], the figures for the inhibition at 1 µM in experiment [1], in experiment [2] and in experiment [3] were 44.4%, 25.9% and 63.2%, respectively.
With `COC(=O)NCC1CCN(Cc2cc(Oc3cnc(N4CCN(C(C)CCC(=O)O)CC4)nc3)nc(-c3cc(Cl)cc(Cl)c3)c2)CC1` (stereo not drawn) [Example 222, 4-(4-(5-((6-(3,5-dichlorophenyl)-4-((4-(((methoxycarbonyl)amino)methyl)piperidin-1-yl)methyl)pyridin-2-yl)oxy)pyrimidin-2-yl)piperazin-1-yl)pentanoic acid], the inhibition at 1 µM in experiment [1] is 25%; in experiment [2] it was 17.6%; in experiment [3] it was 60%.
Take `CN1CCN(c2ncc(Oc3cc(CN4CC[C@@H]5[C@H](CC4)[C@H]5CC(=O)O)cc(-c4cc(Cl)cc(Cl)c4)n3)cn2)CC1` [Example 224, 2-((1R,7S,8r)-4-((2-(3,5-dichloro-phenyl)-6-((2-(4-methylpiperazin-1-yl)pyrimidin-5-yl)oxy)pyridin-4-yl)methyl)-4-azabicyclo[5.1.0]octan-8-yl)acetic acid]: the inhibition at 1 µM in experiment [1] stood at 33.1%; in experiment [2] it was 72%; in experiment [3], 52.3%.
For `CN1CCN(c2ncc(Oc3cc(CN4CCC(OC(C)(C)C(=O)O)CC4)cc(-c4cc(Cl)cc(Cl)c4)n3)cn2)CC1` [Example 225, 2-((1-((2-(3,5-dichlorophenyl)-6-((2-(4-methylpiperazin-1-yl)pyrimidin-5-yl)oxy)pyridin-4-yl)methyl)piperidin-4-yl)oxy)-2-methylpropanoic acid], the inhibition at 1 µM in experiment [1] worked out at 24.2%; in experiment [2], 33.3%; in experiment [3], 52.3%.
In the same order, the values of `CN1CCN(c2ncc(Oc3cc(CN4CCC(CC(=O)O)CC4)cc(-c4cc(Cl)cc(Cl)c4)n3)cn2)CC(O)C1` (stereo not drawn) [Example 226, 2-(1-((2-(3,5-dichlorophenyl)-6-((2-(6-hydroxy-4-methyl-1,4-diazepan-1-yl)pyrimidin-5-yl)oxy)pyridin-4-yl)methyl)piperidin-4-yl)acetic acid] are 26.7%, 58.9% and 41.4%.
Regarding `CN(C)C1CCN(c2ncc(Oc3cc(CN4CCC(CC(=O)O)CC4)cc(-c4cc(Cl)cc(Cl)c4)n3)cn2)CC1` [Example 227, 2-(1-((2-(3,5-dichlorophenyl)-6-((2-(4-(dimethylamino)piperidin-1-yl)pyrimidin-5-yl)oxy)pyridin-4-yl)methyl)piperidin-4-yl)acetic acid], the inhibition at 1 µM in experiment [1] is 40.5%; in experiment [2], 54%; in experiment [3] it was 54.5%.
Taken in the same sequence, the figures for `CN1C2CC1CN(c1ncc(Oc3cc(CN4CCC(CC(=O)O)CC4)cc(-c4cc(Cl)cc(Cl)c4)n3)cn1)C2` [Example 228, 2-(1-((2-(3,5-dichlorophenyl)-6-((2-(6-methyl-3,6-diazabicyclo[3.1.l]heptan-3-yl)pyrimidin-5-yl)oxy)pyridin-4-yl)methyl)piperidin-4-yl)acetic acid] were 17.3%, 31.9% and 36.2%.
In the case of `O=C(O)CC1CCN(Cc2cc(Oc3cnc(N4CCN(CC5(O)CC5)CC4)nc3)nc(-c3cc(Cl)cc(Cl)c3)c2)CC1` [Example 229, 2-(1-((2-(3,5-dichlorophenyl)-6-((2-(4-((1-hydroxycyclopropyl)methyl)piperazin-1-yl)pyrimidin-5-yl)oxy)pyridin-4-yl)methyl)piperidin-4-yl)acetic acid], the values for the inhibition at 1 µM in experiment [1], in experiment [2] and in experiment [3] were 43.2%, 54.8% and 23.7%, respectively.
Consider `CN1C[C@@H]2C[C@H]1CN2c1ncc(Oc2cc(CN3CCC(CC(=O)O)CC3)cc(-c3cc(Cl)cc(Cl)c3)n2)cn1` [Example 231, 2-(1-((2-(3,5-dichlorophenyl)-6-((2-((1S,4S)-5-methyl-2,5-diazabicyclo[2.2.1]heptan-2-yl)pyrimidin-5-yl)oxy)pyridin-4-yl)methyl)piperidin-4-yl)acetic acid], for which the inhibition at 1 µM in experiment [1] was determined as 25.8%; in experiment [2], 44.2%; in experiment [3] it was 66.6%.
In the same order, the values of `CCN1C[C@@H]2C[C@H]1CN2c1ncc(Oc2cc(CN3CCC(CC(=O)O)CC3)cc(-c3cc(Cl)cc(Cl)c3)n2)cn1` [Example 232, 2-(1-((2-(3,5-dichlorophenyl)-6-((2-((1S,4S)-5-ethyl-2,5-diazabicyclo[2.2.1]heptan-2-yl)pyrimidin-5-yl)oxy)pyridin-4-yl)methyl)piperidin-4-yl)acetic acid] are 37.1%, 19.5% and 43.4%.

The values are drawn from patent US20230011571A1, “SMALL MOLECULE FURIN INHIBITORS FOR TREATING INFECTIOUS DISEASES” (BP Asset V, Inc., priority 2019, published 2023).
